According to patent publication US20140178432A1, “PRODUCTION OF DENSE BODIES (DB) FROM HCMV-INFECTED CELLS” (priority 2011, published 2014):
Entries after “also recorded” stand apart in the source; their conditions may differ.

Legend:
Assay type in all cases: cell-based, human cytomegalovirus (HCMV)
HCMV strain TB40/E = assay: Dense Body (DB) production in HUVEC infected with HCMV strain TB40/E, electron microscopy; conditions: for virions in the cytoplasm of the treated batch / concentration of DB in the cytoplasm of the infected cells (electron microscope): HUVEC infected with HCMV TB40/E, A: 300 nmol/l, B: 300 nmol/l, C: 3 μmol/l; for concentration of DB in the cytoplasm of the infected cells (electron microscope): control only a few DB; for concentration that led to optimal results (DB production): HUVEC infected with HCMV strain TB40/E
Procedure: (§1) Human foreskin fibroblasts (“human foreskin fibroblasts, HFF”) were added in an amount of 1×10^6 cells per flask in 5 T75-cell culture flasks on the day before the infection. The HCMV strain AD 169 was prepared as a frozen, cell-free virus preparation that was obtained from cells that were present in a late stage of infection. The substances (A), (B), (C), and (D) according to the invention were provided as stock solutions of 50 mmol/l each in DMSO.
(§2) The HFF cells were incubated for one hour with the virus preparation at a m.o.i. (“multiplicity of infection”) of ≧≧1 TCID 50/cell (1:20 dilution). Then, the virus supernatant was removed, and an incubation of the infected cells was carried out with the substances according to the invention at the following concentrations: A: 50 nmol/l; B: 5 nmol/l; C: 500 nmol/l; D: 500 nmol/l.
(§3) The cells were incubated for 5 days, whereby a renewal of the substance-containing medium was performed after the first and fourth days. After the incubation, the infected cells were examined by electron microscope in the formation of DB.
In another experiment, human endothelial cells from the umbilical vein (HUVEC) were infected with the HCMV strain TB40/E, which was isolated from cells in a late stage of infection. The experimental design corresponds to the one shown under 2.1, whereby the incubation of cells was carried out at the following concentrations of the substances according to the invention: A: 300 nmol/l; B: 300 nmol/l: C: 3 μmol/l; D: […].

HCMV strain AD169 = assay: Dense Body (DB) production in human foreskin fibroblasts infected with HCMV strain AD169, electron microscopy; conditions: for infectious virus particles in the cytoplasm of treated cells / accumulation of DB in the cytoplasm (electron microscope): HFF infected with HCMV AD169, 5 days incubation, A: 50 nmol/l, B: 5 nmol/l, C: 500 nmol/l, D: 500 nmol/l; for infectious virus particles in the cytoplasm of treated cells: untreated cells relatively large numbers; for accumulation of DB in the cytoplasm (electron microscope): untreated cells virtually no DB; for concentration that led to optimal results (DB production): HFF infected with HCMV strain AD169
Procedure: as §1
The stock solutions were diluted 1:1000 to a final concentration of 50 μmol/l. The solutions were further diluted as follows: A: 1:1000 (50 nmol/l) 12 μml in 12 ml of MEM; B: 1:10,000 (5 nmol/l) 1.2 μml in 12 ml of MEM; C: 1:100 (500 nmol/l) 120 μml in 12 ml of MEM; D: 1,100 (500 nmol/l) 120 μml in 12 ml of MEM.
as §2, §3

clinical HCMV isolate = assay: Dense Body (DB) production in HFF infected with a clinical HCMV isolate, co-cultured with non-infected HFF, electron microscopy; conditions: HFF infected with a clinical isolate of HCMV, co-culture with non-infected HFF
Procedure: HFF were infected with a clinical HCMV isolate, which was isolated from cells in a late stage of infection, as further described above under 2.1. The infected HFF were co-cultivated with non-infected HFF in mini-trays (3,000 cells/recess). Three different ratios of infected/non-infected cells were produced: undiluted; 1:2 diluted; 1:4 diluted. The substances according to the invention were incubated with the cells at the following concentrations: A: 300 nmol/l; B: 300 nmol/l; C: 3 μmol/l; D: 30 μmol/l.
After 5 days of incubation at 37° C., the electron-microscopic study was carried out. […] The greater the dilution with non-infected cells, the fewer DB accumulated in the cytoplasm. In the control batch without a substance according to the invention, only very few DB could be identified. Moreover, the ejection of infectious particles from the cell nucleus was prevented in turn by the addition of the substances according to the invention.

| Structure (SMILES) | virions in the cytoplasm of the treated batch (HCMV strain TB40/E) | concentration of DB in the cytoplasm of the infected cells (electron microscope) (HCMV strain TB40/E) | concentration that led to optimal results (DB production) (HCMV strain TB40/E) | infectious virus particles in the cytoplasm of treated cells (HCMV strain AD169) | accumulation of DB in the cytoplasm (electron microscope) (HCMV strain AD169) | concentration that led to optimal results (DB production) (HCMV strain AD169) | concentration that led to good results (DB production) (clinical HCMV isolate) |
| --- | --- | --- | --- | --- | --- | --- | --- |
| Cc1ccc(N2CCN(C(=O)c3nc(NC(=O)Nc4ccc(OC(F)(F)F)cc4)cn3C)CC2)nc1 [substance (B), N-{1-methyl-2-[(4-(5-methyl-pyridin-2-yl)-piperazin-1-yl)carbonyl]-1H-imidazol-4-yl}-N′-[4-(trifluoromethoxy)phenyl]urea] | no virions could be detected | strong concentration of DB | 300 nmol/L | no single infectious virus particle was to be found | large amounts of DB; also recorded: high concentrations of DB | 5 nmol/L | 300 nmol/L |
| COc1c(N2CCC(C(=O)O)CC2)c(F)cc2c(=O)c(C(=O)NCc3ccc(OC(F)(F)F)cc3C)cn(CC(F)(F)F)c12 [substance (C), 1-[6-fluoro-8-methoxy-3-({[2-methyl-4-(trifluoromethoxy)benzyl]amino}carbonyl)-4-oxo-1-(2,2,2-trifluoroethyl)-1,4-dihydroquinolin-7-yl]piperidine-4-carboxylic acid] | no virions could be detected | strong concentration of DB | 3000 nmol/L | no single infectious virus particle was to be found | large amounts of DB; also recorded: high concentrations of DB | 500 nmol/L | 3000 nmol/L |
| N#CC1(C(=O)Nc2cc(F)cc(NS(=O)(=O)c3ccc(-c4noc(-c5cccc(N)n5)n4)cc3)c2)CC1 [substance (D), N-{3-[({4-[5-(6-aminopyridin-2yl)-1,2,4-oxadiazol-3-yl]phenyl}sulfonyl)amino]-5-fluorophenyl}-1-cyanocyclopropane carboxamide] | no virions could be detected | strong concentration of DB | 30000 nmol/L | no single infectious virus particle was to be found | large amounts of DB; also recorded: high concentrations of DB | 500 nmol/L | 30000 nmol/L |
| COc1cccc(N2CCN(C3=Nc4c(F)cccc4[C@H](CC(=O)O)N3c3cc(C(F)(F)F)ccc3OC)CC2)c1 [substance (A), (4S)-{8-fluoro-2-[4-(3-methoxyphenyl)-1-piperazinyl]-3-[2-methoxy-5-(trifluoromethyl)-phenyl]-3,4-dihydro-4-quinazolinyl}acetic acid] | no virions could be detected | strong concentration of DB | 300 nmol/L | no single infectious virus particle was to be found | large amounts of DB; also recorded: high concentrations of DB | 50 nmol/L | 300 nmol/L |
